Measured values taken from patent US7749731B2, “Methods for recombinant peptide production” (XOMA Technology Ltd., priority 1999, dated 2010).

Legend:
Assay in all cases: Broth microdilution antifungal assay
Assay type in all cases: cell-based
Details in all cases: Sabouraud dextrose broth, 30° C., 48 hours
[1] = system: C. glabrata 2001
Procedure: (§1) For example, studies were performed to evaluate the antifungal activity of the recombinant peptide from pING4702 purified according to Example 6 in a broth microdilution assay using four strains of C. albicans, C. glabrata and S. cerevisiae. A similar peptide, XMP.391, that was chemically synthesized, was included in the assay as a positive control. To perform the broth microdilution assay, the fungal cultures were grown overnight at 30° C. in YPD medium (1% yeast extract, 2% peptone, and 2% dextrose). A 400 fold dilution of each culture in YPD was then made, and grown at 30° C. for 8 hours. Three mL of each culture were collected by centrifugation and suspended in 0.9% NaCl to an A600 of about 0.3. These cultures were further diluted to 1×10^4 CFU/mL in Sabouraud dextrose broth (6 mL). Recombinant peptide was in 5 mM acetate, 150 mM NaCl, pH 5.0 at a concentration of about 2 mg/mL. Synthetic peptide was at about 1 mg/mL. Samples were serially diluted and added to microtiter plates containing the cultures. Plates were incubated at 30° C. for 48 hours before growth inhibition was measured.

[2] = system: C. albicans 10231
Procedure: as §1

[3] = system: C. albicans SLU1
Procedure: as §1

[4] = system: C. albicans 26555
Procedure: as §1

[5] = system: S. cerevisiae 9763
Procedure: as §1

[6] = system: C. albicans 14053
Procedure: as §1

| Substance | Concentration that gives 95% inhibition [1] | Concentration that gives 95% inhibition [2] | Concentration that gives 95% inhibition [3] | Concentration that gives 95% inhibition [4] | Concentration that gives 95% inhibition [5] | Concentration that gives 95% inhibition [6] |
| --- | --- | --- | --- | --- | --- | --- |
| Recombinant Peptide: BPI-derived peptide (SEQ ID NO: 3) acid-released from the Bone D-Asp-Pro-Pro-peptide fusion protein encoded by pING4702, purified according to Example 6 (KVGWLIQLFHKK; Human) | 30 µM | 30 µM | 16 µM | 30 µM | 7.5 µM | 16 µM |
| XMP.391: Chemically synthesized 12 amino acid BPI-derived peptide (Lys Val Gly Trp Leu Ile Gln Leu Phe His Lys Lys), positive control (KVGWLIQLFHKK; printed: Lys Val Gly Trp Leu Ile Gln Leu Phe His Lys Lys) | 30 µM | 16 µM | 13.5 µM | 16 µM | 2.0 µM | 16 µM |
